Experimental data: patent US10626103B2, “Inhibitor of lysine specific demethylase-1” (CELGENE QUANTICEL RESEARCH, INC., priority 2014, dated 2020)

Legend:
[1] = target: full-length human LSD1 (Homo sapiens (Human), UniProt O60341); experiment: In vitro enzyme inhibition assay LSD-1 (TR-FRET); format: biochemical; details: H3K4me1-biotin peptide
Description: This assay determines the ability of a test compound to inhibit LSD1 demethylase activity.
The enzymatic assay of LSD1 activity is based on Time Resolved-Fluorescence Resonance Energy Transfer (TR-FRET) detection.
Plates were read by EnVision Multilabel Reader in TR-FRET mode (excitation at 320 nm, emission at 615 nm and 665 nm) after 1 hour incubation at room temperature.
The ability of the compounds disclosed herein to inhibit LSD1 activity was quantified and the respective IC50 value was determined.

[2] = test system: CD11b expression in THP-1 (AML) cells; experiment: LSD1 CD11b cellular assay (flow cytometry); format: cell-based; details: Homo sapiens, 96 h, THP-1 cells, 4 days
Description: To analyze LSD1 inhibitor efficacy in cells, a CDL11b flow cytometry assay was performed. LSD1 inhibition induces CD11b expression in THP-1 (AML) cells which can be measured by flow cytometry. […] LSD 1 test compounds were serially diluted in DMSO. The dilutions were added to each well accordingly to a final concentration of 0.2% DMSO. The cells were incubated at 37 degrees Celsius in 5% CO2 for 4 days. 250 μL of each well was transferred to a well in a 96 well round bottom plate. The plate was centrifuged at 1200 rpm at 4 degrees Celsius in a Beckman Coulter Alegra 6KR centrifuge for 5 minutes. The media was removed leaving the cells at the bottom of the wells. The cells were washed in 100 μL cold HBSS (Hank's Balanced Salt Solution) plus 2% BSA (Bovine Serum Albumin) solution and centrifuged at 1200 rpm at 4 degrees Celsius for 5 minutes. The wash was removed. […] The cells were centrifuged and washed two times in 100 μl HBSS plus 2% BSA. After the final spin the cells were resuspended in 100 μL HBSS plus 2% BSA containing 1 ug/mL DAPI (4′,6-diamidino-2-phenylindole). The cells were then analyzed by flow cytometry in a BD FACSAria machine. Cells were analyzed for CD11b expression. The percent of CD11b expressing cells for each inhibitor concentration was used to determine an IC50 curve for each compound analyzed.

| Compound | IC50 [1] | IC50 [2] |
| --- | --- | --- |
| Cn1cc2cc(-c3c(-c4ccc(C#N)c(F)c4)cc(C(=O)NC[C@@H]4CCNC4)n3C)ccc2n1 [Example 40, N-[((3R)pyrrolidin-3-yl)methyl][4-(4-cyano-3-fluorophenyl)-1-methyl-5-(2-methyl(2H-indazol-5-yl))pyrrol-2-yl]carboxamide] | < 100 nM | < 100 nM |
| Cc1c2cc(-n3c(-c4ccc(C#N)c(F)c4)nc(C(=O)N[C@@H]4CCCNC4)c3C)ccc2nn1C [Example 104, 2-(4-Cyano-3-fluorophenyl)-1-(2,3-dimethylindazol-5-yl)-5-methyl-N-[(3R)-piperidin-3-yl]imidazole-4-carboxamide] | < 100 nM | < 100 nM |
| COc1ccc(-n2c(-c3ccc(C#N)c(F)c3)nc(C(=O)N[C@@H]3CCCNC3)c2F)cc1F [Example 86, 2-(4-Cyano-3-fluorophenyl)-5-fluoro-1-(3-fluoro-4-methoxyphenyl)-N-[(3R)-piperidin-3-yl]imidazole-4-carboxamide] | < 100 nM | 100 to 1000 nM |
| Cc1c(C(=O)NC2CCCNC2)nc(-c2ccc(C#N)c(F)c2)n1-c1ccc2nn(C)cc2c1 (stereo not shown) [Example 45, 2-(4-Cyano-3-fluorophenyl)-5-methyl-1-(2-methylindazol-5-yl)-N-piperidin-3-ylimidazole-4-carboxamide] | < 100 nM | < 100 nM |
| Cc1c(C(=O)N2CCC3(CCCN3)C2)nc(-c2ccc(C#N)c(F)c2)n1-c1ccc2nn(C)cc2c1 (stereo not shown) [Example 90, 4-[4-(1,7-Diazaspiro[4.4]nonane-7-carbonyl)-5-methyl-1-(2-methylindazol-5-yl)imidazol-2-yl]-2-fluorobenzonitrile] | < 100 nM | 100 to 1000 nM |
| CN[C@H]1CCN(C(=O)c2cn(-c3ccc4nn(C)c(Cl)c4c3)c(-c3ccc(C#N)c(F)c3)n2)C1 [Example 113, 4-[1-(3-Chloro-2-methylindazol-5-yl)-4-[(3S)-3-(methylamino)pyrrolidine-1-carbonyl]imidazol-2-yl]-2-fluorobenzonitrile] | < 100 nM | < 100 nM |
| Cn1cc2cc(-n3c(-c4ccc(C#N)c(F)c4)nc(C(=O)N4CCC[C@@H](N)C4)c3F)ccc2n1 [Example 77, 4-[4-[(3R)-3-Aminopiperidine-1-carbonyl]-5-fluoro-1-(2-methylindazol-5-yl)imidazol-2-yl]-2-fluorobenzonitrile] | < 100 nM | < 100 nM |
| CN[C@H]1CCCN(C(=O)c2nc(-c3ccc(C#N)c(F)c3)n(-c3ccc4nn(C)cc4c3)c2C)C1 [Example 97, 2-Fluoro-4-[5-methyl-4-[(3S)-3-(methylamino)piperidine-1-carbonyl]-1-(2-methylindazol-5-yl)imidazol-2-yl]benzonitrile] | < 100 nM | < 100 nM |
| Cc1c(C(=O)N2CC[C@H](N(C)C)C2)nc(-c2ccc(C#N)c(F)c2)n1-c1ccc2c(cnn2C)c1 [Example 95, 4-[4-[(3S)-3-(Dimethylamino)pyrrolidine-1-carbonyl]-5-methyl-1-(1-methylindazol-5-yl)imidazol-2-yl]-2-fluorobenzonitrile] | < 100 nM | < 100 nM |
| COc1ccc(-n2cc(C(=O)N3CCC[C@@H](N)C3)nc2-c2ccc(C#N)c(F)c2)cc1F [Example 19, 4-[4-[(3R)-3-aminopiperidine-1-carbonyl]-1-(3-fluoro-4-methoxyphenyl)imidazol-2-yl]-2-fluorobenzonitrile] | < 100 nM | < 100 nM |
| CN(C)[C@H]1CCN(C(=O)c2nc(-c3ccc(C#N)c(F)c3)n(-c3ccc4nn(C)c(Cl)c4c3)c2F)C1 [Example 58, 4-[1-(3-Chloro-2-methylindazol-5-yl)-4-[(3S)-3-(dimethylamino)pyrrolidine-1-carbonyl]-5-fluoroimidazol-2-yl]-2-fluorobenzonitrile] | < 100 nM | < 100 nM |
| CNCCNC(=O)c1cc(-c2ccc(C#N)c(F)c2)c(-c2ccc3nn(C)cc3c2)n1C [Example 32, [4-(4-cyano-3-fluorophenyl)-1-methyl-5-(2-methyl(2H-indazol-5-yl))pyrrol-2-yl]-N-[2-(methylamino)ethyl]carboxamide] | < 100 nM | < 100 nM |
| Cn1nc2ccc(-n3cc(C(=O)N4CCC5(CCN5)C4)nc3-c3ccc(C#N)c(F)c3)cc2c1Cl (stereo not shown) [Example 93, 4-[1-(3-Chloro-2-methylindazol-5-yl)-4-(1,7-diazaspiro[3.4]octane-7-carbonyl)imidazol-2-yl]-2-fluorobenzonitrile] | < 100 nM | 100 to 1000 nM |
| CN[C@H]1CCN(C(=O)c2nc(-c3ccc(C#N)c(F)c3)n(-c3ccc(OC)c(F)c3)c2F)C1 [Example 68, 2-Fluoro-4-[5-fluoro-1-(3-fluoro-4-methoxyphenyl)-4-[(3S)-3-(methylamino)pyrrolidine-1-carbonyl]imidazol-2-yl]benzonitrile] | < 100 nM | < 100 nM |
| Cc1c2cc(-n3c(-c4ccc(C#N)c(F)c4)nc(C(=O)N4CC[C@H](N(C)C)C4)c3C)ccc2nn1C [Example 102, 4-[4-[(3S)-3-(Dimethylamino)pyrrolidine-1-carbonyl]-1-(2,3-dimethylindazol-5-yl)-5-methylimidazol-2-yl]-2-fluorobenzonitrile] | < 100 nM | < 100 nM |
| COc1ccc(-n2c(-c3ccc(C#N)c(F)c3)nc(C(=O)N3CC[C@H](N)C3)c2F)cc1F [Example 89, 4-[4-[(3S)-3-Aminopyrrolidine-1-carbonyl]-5-fluoro-1-(3-fluoro-4-methoxyphenyl)imidazol-2-yl]-2-fluorobenzonitrile] | < 100 nM | 100 to 1000 nM |
| N#Cc1ccc(-c2nc(C(=O)N3CCC[C@@H](N)C3)c(Cl)n2-c2ccc(C3CC3)nc2)cc1F [Example 80, 4-[4-[(3R)-3-Aminopiperidine-1-carbonyl]-5-chloro-1-(6-cyclopropylpyridin-3-yl)imidazol-2-yl]-2-fluorobenzonitrile] | < 100 nM | 100 to 1000 nM |
| Cc1c(C(=O)N2CC[C@H](N)C2)nc(-c2ccc(C#N)c(F)c2)n1-c1ccc2c(cnn2C)c1 [Example 24, 4-[4-[(3S)-3-aminopyrrolidine-1-carbonyl]-5-methyl-1-(1-methylindazol-5-yl)imidazol-2-yl]-2-fluorobenzonitrile] | < 100 nM | < 100 nM |

The remaining lines, values ahead:

| IC50 [1] | IC50 [2] | Compound |
| --- | --- | --- |
| < 100 nM | < 100 nM | Cn1c(C(=O)N2CCC[C@@H](N)C2)cc(-c2ccc(C#N)c(F)c2)c1-c1ccc2c(c1)ncn2C [Example 10, 4-[5-(3-(R)-amino-piperidine-1-carbonyl)-1-methyl-2-(1-methyl-1H-benzoimidazol-5-yl)-1H-pyrrol-3-yl]-2-fluoro-benzonitrile] |
| < 100 nM | < 100 nM | COc1ccc(-c2c(-c3ccc(C#N)c(F)c3)cc(C(=O)N3CCC[C@@H](N)C3)n2CCCC(N)=O)cc1 [Example 42, 4-{5-[((3R)-3-aminopiperidyl)carbonyl]-3-(4-cyano-3-fluorophenyl)-2-(4-methoxyphenyl)pyrrolyl} butanamide] |
| < 100 nM | < 100 nM | Cc1ccc(-c2c(-c3ccc(C#N)c(F)c3)cc(C(=O)N3CCC[C@@H](N)C3)n2CCO)cc1 [Example 4, 4-[5-(3-(R)-amino-piperidine-1-carbonyl)-1-(2-hydroxy-ethyl)-2-p-tolyl-1H-pyrrol-3-yl]-2-fluoro-benzonitrile] |
| < 100 nM | < 100 nM | Cc1ccc(-c2c(-c3ccc(C#N)cc3)cc(C(=O)N3CCC[C@@H](N)C3)n2C)cc1 [Example 1, 4-[5-(3-(R)-amino-piperidine-1-carbonyl)-1-methyl-2-p-tolyl-1H-pyrrol-3-yl]-benzonitrile] |
| < 100 nM | < 100 nM | Cn1c(C(=O)N2CCC[C@@H](N)C2)cc(-c2ccc(C#N)cc2)c1-c1ccncc1 [Example 6, 4-[5-(3-(R)-amino-piperidine-1-carbonyl)-1-methyl-2-pyridin-4-yl-1H-pyrrol-3-yl]-benzonitrile] |
| < 100 nM | < 100 nM | COc1ccc(-c2c(-c3ccc(C#N)c(F)c3)cc(C(=O)N3CCC[C@@H](N)C3)n2C)cc1 [Example 2, 4-[5-(3-(R)-amino-piperidine-1-carbonyl)-2-(4-methoxy-phenyl)-1-methyl-1H-pyrrol-3-yl]-2-fluoro-benzonitrile] |
| < 100 nM | < 100 nM | Cn1cc2cc(-c3c(-c4ccc(C#N)c(F)c4)cc(C(=O)N4CCC[C@@H](N)C4)n3CCO)ccc2n1 [Example 35, (R)-4-(5-(3-aminopiperidine-1-carbonyl)-1-(2-hydroxyethyl)-2-(2-methyl-2H-indazol-5-yl)-1H-pyrrol-3-yl)-2-fluorobenzonitrile] |
| < 100 nM | < 100 nM | Cn1cc2cc(-c3c(-c4ccc(C#N)c(F)c4)cc(C(=O)N4CCC[C@@H](N)C4)n3C[C@H](O)CO)ccc2n1 [Example 39, 4-(5-((R)-3-aminopiperidine-1-carbonyl)-1-((S)-2,3-dihydroxypropyl)-2-(2-methyl-2H-indazol-5-yl)-1H-pyrrol-3-yl)-2-fluorobenzonitrile] |
